Legend:
[1] = test system: adjuvant arthritic rats; test: adjuvant arthritis test, evaluation of bone degeneration (osteogenic changes) in the non-injected hind paw; type: in vivo, female Wistar, Lewis rats; details: Rattus norvegicus
Excerpt: (§1) The efficacy of the novel combination of this invention in inhibiting inflammation and osteogenic degeneration is particularly seen in the adjuvant arthritis test. […] The adjuvant arthritis test, a test in which adjuvant arthritis which results both in inflammation and osteogenic changes is induced by Mycobacterium butvricum and in which the effect of the test compounds on each effect can be Determined, is considered to be .most useful for evaluation of compounds which may be suitable for the treatment of rheumatoid arthritis and other arthritic diseases. The test procedure, in which the effect on inflammation is determined by paw volume changes and the effect on osteogenic changes is determined by microscopic observation, is described by Wong et al, in J. Pharmacol.Exp.Ther. 185, 127-138, 1973, and is employed in the present determination of the potentiation of the antiarthritic properties of 5-aroyl-l-loweralkyl-pyrrole-2-acetic acid derivatives by aspirin or acetaminophen.
(§2) Briefly, in this procedure, adjuvant arthritis is induced in female Wistar, Lewis rats (Charles River Breeding Laboratories. Inc., Wiimington, Mass.) weighing 160-190 gm by a single subcutaneous injection of 0.75 mg Mycobacterium butyricum (Difco) into the left hind paw. The non-injected hind paw remains a normal size for the first seven days. Swelling begins to appear in the non-injected paw of the first rats on Day 8. Using the paw volume determination technique (a technique in which rat paws are dippedin mercury to the hairline and the volume of displacement determined by a modified Van Arman mercury displacement method as described in the aforementioned paper of Wong et al), the time progress curve of volume changes in the non-injected (contralateral) paw is followed. […] The mean onset time for 100 rats is found to be 11.6 days with a standard deviation of 1.9 days and the frequency of onset time values distributed normally between Days 8 and 19. Thus, determinations of antiarthritic activity are made in the period Day 11 to Day 28.
(§3) For determination of anti-inflammatory properties two different evaluations are made: (a) the evaluation of paw volume during the Phase II and Phase III periods and, (b) the evaluation of osteogenic (bone) degenration during the Phase IV period.
For evaluation of bone degenerations, normal and adjuvant arthritic rats are sacrificed under C02, after the paw volume measurements have been completed on Day 28. The hind legs are removed above the knees and skinned and the soft tissues dissected away with care to avoid injury to bone and articular structures. The leg bones are then immersed in 2 percent potassium hydroxide solution for approximately four to five days until the remaining soft tissues becomes properly macerated and/or transparent, and the bones are fully visible. The leg bones are stained with Alizarin Red (0.01 percent in 2 percent KOH) for eight hours, and then processed through increasing concentrations of glycerol in water (20, 40, 60, 80 and 100 percent) for purposes of clearing the tissues for microscopic observation. The distal end of the tibiae, the tarsals, metatarsals, phalanges, and sesamoids are evaluated under a Stereozoom Microscope (a special type of dissecting microscope, product of Bausch and Lomb).
Osteogenic changes for each bone (in 31 bone categories) in the non-injected hind paw are graded on a scale of from 0 to 10 (increasing numerical value corresponding to increasing severity of bone degeneration). A total bone degeneration score is obtained (maximum score/paw = 310 points) and then expressed as a percent score. The mean percent score (95 percent confidence limits) for saline control groups from 26 experiments (184 animals) is found to be 53.4 (50.9-55.9). Percent score values for drug treated animals are expressed as a percent inhibition relative to the mean for the saline control group. Data is evaluated statistically and ED50 values with 95 percent confidence limits are calculated.

[2] = test system: adjuvant arthritic rats; test: adjuvant arthritis test, evaluation of paw volume of the non-injected hind paw; type: in vivo, female Wistar, Lewis rats
Excerpt: as §1, §2, §3
For evaluation of paw volume, adjuvant arthritic rats with early but significant signs of arthritis in the contralateral paw are selected on Day 11 and randomly assigned to the various groups of 10 animals in each group. All test -animals are dosed-daily (per os) with the test compound, preferably as sodium salt, or in saline for 17 days (Days 11 to 27 inclusive). Control animals are dosed with an equivalent volume of saline. The paw volumes of the non-injected paws are determined initially on Day 11 and again on Days 15, 18, 22, 25, and 28. The paw volumes are then compared with normal paw volumes of adjuvant arthitic rats previously determined from a reference curve relating normal paw volume to body weight. The volume of each individual rat which is greater than the normal volume is utilized in the analysis of the data. Values for drug treated animals are expressed as a percent inhibition of the paw volume change relative to the mean value for saline controls. Data is evaluated statistically and ED50 values with 95 percent confidence limits are calculated. The method for statistical analysis is described in detail in the aforementioned paper of Wong et al. The term "ED50" refers to the dose of drug required to produce 50 percent antagonism of the paw volume changes observed in the saline treated adjuvant arthritis controls. Suppression of paw volume changes reflects anti-inflammatory and antiarthritic activity of a test drug.

`Cc1ccc(C(=O)c2ccc(CC(=O)O)n2C)cc1` [Tolmetin, 1-methyl-5-p-toluoyl-pyrrole-2-acetic acid] was tested, and the inhibition at 7.5 mg/kg ([1]; Tolmetin 7.5 mg/kg/day alone, read-out: Percent Inhibition of Bone Degeneration ± S.E.) was 18.6 ± 6.9%, the inhibition at 30 mg/kg ([1]; Tolmetin 30.0 mg/kg/day alone, read-out: Percent Inhibition of Bone Degeneration ± S.E.) was 26.3 ± 3.7% and the inhibition at 120 mg/kg ([1]; Tolmetin 120.0 mg/kg/day alone, read-out: Percent Inhibition of Bone Degeneration ± S.E.) was 51.7 ± 6.4%. For the same molecule, the inhibition at 5.6 mg/kg ([1]; bone degeneration, Tolmetin 5.6 mg/kg/day alone, read-out: Percent Inhibition ± S. E.) was 26.6 ± 7%, the inhibition at 11.1 mg/kg ([1]; bone degeneration, Tolmetin 11.1 mg/kg/day alone, read-out: Percent Inhibition ± S. E.) was 28.7 ± 7.7% and the inhibition at 16.7 mg/kg ([1]; bone degeneration, Tolmetin 16.7 mg/kg/day alone, read-out: Percent Inhibition ± S. E.) was 27.5 ± 4.9%. For the same molecule, the inhibition at 33.3 mg/kg ([1]; bone degeneration, Tolmetin 33.3 mg/kg/day alone, read-out: Percent Inhibition ± S. E.) was 33.4 ± 3.9%, the inhibition at 50 mg/kg ([1]; bone degeneration, Tolmetin 50.0 mg/kg/day alone, read-out: Percent Inhibition ± S. E.) was 34.9 ± 2.7% and the inhibition at 100 mg/kg ([1]; bone degeneration, Tolmetin 100 mg/kg/day alone, read-out: Percent Inhibition ± S. E.) was 54.2 ± 1.9%. For the same molecule, the ED50 ([1]; Table III, ED50 of tolmetin without acetaminophen, read-out: ED50 values) was 110 mg/kg, the ED50 ([1]; Table V, ED50 of tolmetin without Aspirin, read-out: ED50) was 89.7 mg/kg and the ED50 ([1]; drug alone, suppression of osteogenic changes, data from several experiments pooled, read-out: ED50 and 95 percent C.L.) was 110 mg/kg. For the same molecule, the ED50 ([2]; Rattus norvegicus, 672 h, Table IV, ED50 of tolmetin without Aspirin, Day 28, read-out: ED50) was 32 mg/kg, the inhibition at 5.6 mg/kg ([2]; Rattus norvegicus, 672 h, Tolmetin 5.6 mg/kg/day alone, Day 28, read-out: Percent Inhibition ± S.E. (Day 28)) was 30.5 ± 5.1% and the inhibition at 11.1 mg/kg ([2]; Rattus norvegicus, 672 h, Tolmetin 11.1 mg/kg/day alone, Day 28, read-out: Percent Inhibition ± S.E. (Day 28)) was 34.5 ± 8%. It also gave an inhibition at 16.7 mg/kg ([2]; Rattus norvegicus, 672 h, Tolmetin 16.7 mg/kg/day alone, Day 28, read-out: Percent Inhibition ± S.E. (Day 28)) of 58.4 ± 8.1%, an inhibition at 33.3 mg/kg ([2]; Rattus norvegicus, 672 h, Tolmetin 33.3 mg/kg/day alone, Day 28, read-out: Percent Inhibition ± S.E. (Day 28)) of 50.8 ± 8.4% and an inhibition at 50 mg/kg ([2]; Rattus norvegicus, 672 h, Tolmetin 50 mg/kg/day alone, Day 28, read-out: Percent Inhibition ± S.E. (Day 28)) of 62.6 ± 2.7%. For the same molecule, the inhibition at 100 mg/kg ([2]; Rattus norvegicus, 672 h, Tolmetin 100 mg/kg/day alone, Day 28, read-out: Percent Inhibition ± S.E. (Day 28)) was 66.4 ± 3.9%, the ED50 ([2]; Rattus norvegicus, Table II, tolmetin without acetaminophen, read-out: ED50 values of Tolmetin) was 32 mg/kg and the inhibition at 7.5 mg/kg ([2]; Rattus norvegicus, Tolmetin 7.5 mg/kg/day alone, read-out: Percent Inhibition of Paw Volume ± S.E.) was 37.8 ± 8.8%. For the same molecule, the inhibition at 30 mg/kg ([2]; Rattus norvegicus, Tolmetin 30.0 mg/kg/day alone, read-out: Percent Inhibition of Paw Volume ± S.E.) was 49.3 ± 9.7%, the inhibition at 120 mg/kg ([2]; Rattus norvegicus, Tolmetin 120.0 mg/kg/day alone, read-out: Percent Inhibition of Paw Volume ± S.E.) was 78.4 ± 3% and the ED50 ([2]; Rattus norvegicus, po, 360 h, drug given alone per os, Day 15, read-out: ED50 Values and 95 Percent C.L.) was 42.1 mg/kg. The ED50 ([2]; Rattus norvegicus, po, 432 h, drug given alone per os, Day 18, read-out: ED50 Values and 95 Percent C.L.) was 40.6 mg/kg, the ED50 ([2]; Rattus norvegicus, po, 528 h, drug given alone per os, Day 22, read-out: ED50 Values and 95 Percent C.L.) was 32.4 mg/kg and the ED50 ([2]; Rattus norvegicus, po, 600 h, drug given alone per os, Day 25, read-out: ED50 Values and 95 Percent C.L.) was 29.5 mg/kg. For the same molecule, the ED50 ([2]; Rattus norvegicus, po, 672 h, drug given alone per os, Day 28, read-out: ED50 Values and 95 Percent C.L.) was 26.4 mg/kg and the “ED50 Values and 95 Percent C.L.” value ([2]; drug given alone per os, Day 28, 40320 min) was 26.4 (22.3 - 29.6) mg/kg/day.
